Source: paper PMC5228619 (Cell chemical biology, 2016)
Converted amounts (≈) assume the structure as drawn. One block for each molecule: values may come before it.

Columns and labels:
UCH MSSA 1 (dfrG) = test: MIC against clinical isolate UCH MSSA 1; format: cell-based, Staphylococcus aureus
UCH MRSA 1 (dfrG) = test: MIC against clinical isolate UCH MRSA 1; format: cell-based, Staphylococcus aureus
HH MRSA 714 (dfrG) = test: MIC against clinical isolate HH MRSA 714; format: cell-based; conditions: Staphylococcus aureus
UCH MRSA 115 (dfrA) = test: MIC against clinical isolate UCH MRSA 115; format: cell-based, Staphylococcus aureus
HH MRSA 1144 (dfrA) = test: MIC against clinical isolate HH MRSA 1144; format: cell-based, Staphylococcus aureus
UCH MRSA 121 (dfrG) = test: MIC against clinical isolate UCH MRSA 121; format: cell-based, Staphylococcus aureus
UCH MRSA 127 (dfrG) = test: MIC against clinical isolate UCH MRSA 127; format: cell-based, Staphylococcus aureus
[1] = test system: multi-drug resistant MRSA ST398 (dfrK); conditions: dfrK in swine MRSA ST398; ref Kadlec et al. 2010; cited from earlier work
HH MRSA 1184 (dfrK) = test: MIC against clinical isolate HH MRSA 1184; format: cell-based, Staphylococcus aureus
ATCC 43300 (Sa43300) = test: MIC against ATCC 43300; format: cell-based, Staphylococcus aureus
[2] = test system: S. aureus with dfrB point mutations; conditions: point mutations in chromosomal dfrB, ref Dale et al., 1997, cited from earlier work
[3] = test system: TMP-resistant MRSA and MSSA clinical isolates; test: MIC against panel of TMP-resistant clinical isolates; format: cell-based, Staphylococcus aureus
[4] = test system: TMP-resistant MRSA and MSSA clinical isolates; test: Clinical antibiotic susceptibility; format: cell-based, Staphylococcus aureus; conditions: all strains; CLSI breakpoint standards
[5] = Staphylococcus aureus, ATCC43300
[6] = UCH MSSA 1 (dfrG), sinus cavity isolate
[7] = UCH MRSA 115 (dfrA), SSTI isolate
[8] = HH MRSA 1184 (dfrK), sputum isolate
[9] = HH MRSA 1144 (dfrA), SSTI isolate
[10] = UCH MRSA 121 (dfrG), sputum isolate
[11] = UCH MRSA 127 (dfrG), SSTI isolate
[12] = ATCC 43300, no TMP resistance gene

Structure (SMILES): Cc1cc(NS(=O)(=O)c2ccc(N)cc2)no1 [SMX, sulfamethoxazole, reference compound]
MIC (UCH MSSA 1 (dfrG); Staphylococcus aureus, MSSA): > 500 µg/mL
MIC (UCH MRSA 1 (dfrG); Staphylococcus aureus, MRSA): > 500 µg/mL
MIC (HH MRSA 714 (dfrG)): > 500 µg/mL
MIC (UCH MRSA 115 (dfrA); Staphylococcus aureus, MRSA): 500 µg/mL (≈ 1970 µM)
MIC (HH MRSA 1144 (dfrA); Staphylococcus aureus, MRSA): > 500 µg/mL
MIC (UCH MRSA 121 (dfrG); Staphylococcus aureus, MRSA): > 500 µg/mL
MIC (UCH MRSA 127 (dfrG); Staphylococcus aureus, MRSA): 16 µg/mL (≈ 63.2 µM)

Structure (SMILES): COc1cc(Cc2cnc(N)nc2N)cc(OC)c1OC [TMP, trimethoprim, reference compound]
MIC [1]: 256 µg/mL (≈ 882 µM)
MIC (UCH MSSA 1 (dfrG); Staphylococcus aureus, MSSA): > 1000 µg/mL
MIC (UCH MRSA 1 (dfrG); Staphylococcus aureus, MRSA): > 1000 µg/mL
MIC (HH MRSA 714 (dfrG)): > 1000 µg/mL
MIC (UCH MRSA 115 (dfrA); Staphylococcus aureus, MRSA): 250 µg/mL (≈ 861 µM)
MIC (HH MRSA 1184 (dfrK); Staphylococcus aureus, MRSA): > 1000 µg/mL
MIC (UCH MRSA 121 (dfrG); Staphylococcus aureus, MRSA): > 1000 µg/mL
MIC (UCH MRSA 127 (dfrG); Staphylococcus aureus, MRSA): > 1000 µg/mL
MIC (ATCC 43300 (Sa43300); [5]): 0.312 µg/mL (≈ 1.08 µM)
MIC ([2]; 1990s): 256 µg/mL (≈ 882 µM)
Increase in MIC [2]: ~ 800 fold

Structure (SMILES): CCc1nc(N)nc(N)c1C#C[C@@H](C)c1cc(-c2ccc(C(=O)O)cc2)ccc1OC [UCP1164]
MIC (UCH MSSA 1 (dfrG); [6]): 5 µg/mL (≈ 12 µM)
MIC (UCH MRSA 1 (dfrG); UCH MRSA 1 (dfrG), blood isolate): 2.5 µg/mL (≈ 6 µM)
MIC (UCH MRSA 115 (dfrA); [7]): 10 µg/mL (≈ 24 µM)
MIC (HH MRSA 1184 (dfrK); [8]): 0.625 µg/mL (≈ 1.5 µM)
MIC (HH MRSA 1144 (dfrA); [9]): 5 µg/mL (≈ 12 µM)
MIC (UCH MRSA 121 (dfrG); [10]): 5 µg/mL (≈ 12 µM)
MIC (UCH MRSA 127 (dfrG); [11]): 2.5 µg/mL (≈ 6 µM)
MIC (ATCC 43300 (Sa43300); [12]): 0.0391 µg/mL (≈ 0.0939 µM)

Structure (SMILES): CCc1nc(N)nc(N)c1C#C[C@@H](C)c1cc(OC)cc(-c2ccc(C(=O)O)cc2)c1 [UCP1172]
MIC against strains possessing dfrA ([3]; dfrA-possessing strains): does not significantly inhibit
MIC (UCH MRSA 115 (dfrA); [7]): 5 µg/mL (≈ 12 µM)
MIC (HH MRSA 1184 (dfrK); [8]): 0.3125 µg/mL (≈ 0.75 µM)
MIC (HH MRSA 1144 (dfrA); [9]): 5 µg/mL (≈ 12 µM)
MIC (UCH MRSA 121 (dfrG); [10]): 0.625 µg/mL (≈ 1.5 µM)
MIC (UCH MRSA 127 (dfrG); [11]): 0.3125 µg/mL (≈ 0.75 µM)
MIC (ATCC 43300 (Sa43300); [12]): 0.0098 µg/mL (≈ 0.0235 µM)

Structure (SMILES): CCc1nc(N)nc(N)c1C#CC(C)c1cc2c(c(-c3ccc(C(=O)O)cc3)c1)OCO2 (stereo not shown) [UCP1191]
MIC against strains carrying dfrG and dfrK ([3]; dfrG- and dfrK-possessing strains): 0.1563−0.625 μg/mL
MIC (UCH MSSA 1 (dfrG); [6]): 0.3125 µg/mL (≈ 0.726 µM)
MIC (UCH MRSA 115 (dfrA); [7]): 20 µg/mL (≈ 46.5 µM)
MIC (HH MRSA 1184 (dfrK); [8]): 0.1563 µg/mL (≈ 0.363 µM)
MIC (HH MRSA 1144 (dfrA); [9]): 10 µg/mL (≈ 23.2 µM)
MIC (UCH MRSA 121 (dfrG); [10]): 0.625 µg/mL (≈ 1.45 µM)
MIC (UCH MRSA 127 (dfrG); [11]): 0.1563 µg/mL (≈ 0.363 µM)

Structure (SMILES): CCc1nc(N)nc(N)c1C#C[C@@H](C)c1cc2c(c(-c3ccc(C(=O)O)cc3)c1)OCO2 [UCP1205, (S)-4-(6-(4-(2,4-diamino-6-ethylpyrimidin-5-yl)but-3-yn-2-yl)benzo[d][1,3]dioxol-4-yl)benzoic acid]
MIC (UCH MSSA 1 (dfrG); Staphylococcus aureus, MSSA): 0.312 µg/mL (≈ 0.726 µM)
MIC (UCH MRSA 1 (dfrG); Staphylococcus aureus, MRSA): 0.625 µg/mL (≈ 1.45 µM)
MIC (HH MRSA 714 (dfrG)): 0.625 µg/mL (≈ 1.45 µM)
MIC (UCH MRSA 115 (dfrA); Staphylococcus aureus, MRSA): > 10 µg/mL
MIC (HH MRSA 1184 (dfrK); Staphylococcus aureus, MRSA): 0.312 µg/mL (≈ 0.726 µM)
MIC (HH MRSA 1144 (dfrA); Staphylococcus aureus, MRSA): > 10 µg/mL
MIC (UCH MRSA 121 (dfrG); Staphylococcus aureus, MRSA): 0.625 µg/mL (≈ 1.45 µM)
MIC (UCH MRSA 127 (dfrG); Staphylococcus aureus, MRSA): 0.312 µg/mL (≈ 0.726 µM)

Structure (SMILES): CCc1nc(N)nc(N)c1C#C[C@H](C)c1cc2c(c(-c3ccc(C(=O)O)cc3)c1)OCO2 [UCP1206, (R)-4-(6-(4-(2,4-diamino-6-ethylpyrimidin-5-yl)but-3-yn-2-yl)benzo[d][1,3]dioxol-4-yl)benzoic acid]
MIC (UCH MSSA 1 (dfrG); Staphylococcus aureus, MSSA): 1.25 µg/mL (≈ 2.9 µM)
MIC (UCH MRSA 1 (dfrG); Staphylococcus aureus, MRSA): 2.5 µg/mL (≈ 5.81 µM)
MIC (HH MRSA 714 (dfrG)): 2.5 µg/mL (≈ 5.81 µM)
MIC (UCH MRSA 115 (dfrA); Staphylococcus aureus, MRSA): > 10 µg/mL
MIC (HH MRSA 1184 (dfrK); Staphylococcus aureus, MRSA): 1.25 µg/mL (≈ 2.9 µM)
MIC (HH MRSA 1144 (dfrA); Staphylococcus aureus, MRSA): > 10 µg/mL
MIC (UCH MRSA 121 (dfrG); Staphylococcus aureus, MRSA): 2.5 µg/mL (≈ 5.81 µM)
MIC (UCH MRSA 127 (dfrG); Staphylococcus aureus, MRSA): 1.25 µg/mL (≈ 2.9 µM)
MIC (ATCC 43300 (Sa43300); [5]): 0.0098 µg/mL (≈ 0.0228 µM)

Susceptibility based on breakpoint MICs [4]: susceptible
Structure (SMILES): CCCCCCCCCC(=O)N[C@@H](Cc1c[nH]c2ccccc12)C(=O)N[C@H](CC(N)=O)C(=O)N[C@@H](CC(=O)O)C(=O)N[C@@H]1C(=O)NCC(=O)N[C@@H](CCCN)C(=O)N[C@@H](CC(=O)O)C(=O)N[C@H](C)C(=O)N[C@@H](CC(=O)O)C(=O)NCC(=O)N[C@H](CO)C(=O)N[C@@H]([C@H](C)CC(=O)O)C(=O)N[C@@H](CC(=O)c2ccccc2N)C(=O)O[C@@H]1C [daptomycin]

Susceptibility based on breakpoint MICs [4]: susceptible
Structure (SMILES): CC(=O)NC[C@H]1CN(c2ccc(N3CCOCC3)c(F)c2)C(=O)O1 [linezolid]

Susceptibility based on breakpoint MICs [4]: susceptible
Structure (SMILES): CO[C@H]1/C=C/O[C@@]2(C)Oc3c(C)c(O)c4c(O)c(c(/C=N/N5CCN(C)CC5)c(O)c4c3C2=O)NC(=O)/C(C)=C\C=C\[C@H](C)[C@H](O)[C@@H](C)[C@@H](O)[C@@H](C)[C@H](OC(C)=O)[C@@H]1C [rifampin]

Structure (SMILES): CN[C@H](CC(C)C)C(=O)N[C@H]1C(=O)N[C@@H](CC(N)=O)C(=O)N[C@H]2C(=O)N[C@H]3C(=O)N[C@H](C(=O)N[C@H](C(=O)O)c4cc(O)cc(O)c4-c4cc3ccc4O)[C@H](O)c3ccc(c(Cl)c3)Oc3cc2cc(c3O[C@@H]2O[C@H](CO)[C@@H](O)[C@H](O)[C@H]2O[C@H]2C[C@](C)(N)[C@H](O)[C@H](C)O2)Oc2ccc(cc2Cl)[C@H]1O [vancomycin]
Susceptibility based on breakpoint MICs [4]: susceptible
